Where a chain is given by its changes, count along the chain named. Entries after “also recorded” stand apart in the source; their conditions may differ. Where a SMILES comes first, the peptide text is derived from it. Bridges are numbered along the chain shown (N, C = ends).
Legend:
rat INS-1 beta-cells = experiment: AlamarBlue cell viability of beta-cells given aliquots of the IAPP amyloid time course; format: cell-based; details: for presence and toxic effects of intermediates of amyloid formation: human IAPP with compound
Procedure: FIG. 5. […] (A) A thioflavin-T monitored time course of amyloid formation in the presence and absence of flurbiprofen. […] 20 mM Tris-HCl buffer with 0.25% DMSO was used as the control.
The presence of toxic intermediates is reduced when amyloid formation is accelerated by use of flurbiprofen or a flurbiprofen derivative. A thioflavin-T monitored time course of amyloid formation by human IAPP was conducted in the presence and absence of flurbiprofen. Aliquots were removed at various time points and applied to rat INS-1 beta-cells; at thirty minutes, at 12 hours, at 48 hours. Cell viability as judged by AlamarBlue assays. 20 mM Tris-HCl buffer with 0.25% DMSO was used as the control.

[1] = tested on: human islet cell transplants; experiment: Mice transplanted with human islet cell transplants; format: in vivo, mouse; details: example in present tense
Procedure: Mice transplanted with human islet cell transplants are treated with flurbiprofen or a flurbiprofen derivative.

[2] = tested on: human IAPP transgenic mouse islets; experiment: Amyloid formation induced in human IAPP transgenic mouse islets; format: cell-based; details: example in present tense
From the text: Amyloid formation is induced in human IAPP transgenic mouse islets in the presence and absence of flurbiprofen or a flurbiprofen derivative.

H18Q human IAPP = target: T1, H18Q human IAPP (Homo sapiens, UniProt P10997, H51Q); experiment: Thioflavin-T assay of mutant human IAPP amyloid formation (H18Q); format: biochemical; details: 1:20 mixture of mutant with flurbiprofen
T1 construct: Mature, fully processed, Amylin is 37 residues in length, contains a disulfide bond between residues 2 and 7
T1 sequence (P10997 34-70 H51Q): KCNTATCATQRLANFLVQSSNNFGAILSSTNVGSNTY
From the text: (§1) A mixture of flurbiprofen (20 parts) and human IAPP (1 part) was monitored by fluorescence detected thioflavin-T assays. The assays monitored the time course of amyloid formation (amount vs time) in the presence and absence of flurbiprofen. The effect of flurbiprofen in wild-type (WT) human IAPP, and in two mutants of human IAPP was monitored. In one mutant, all of the aromatic amino acids in human IAPP were replaced by […] human IAPP was examined. A second mutant in which […] human IAPP) was also tested.

A-beta(1-40) = target: T2, A-beta(1-40) (Homo sapiens, UniProt P05067); experiment: Thioflavin-T assay of A-beta(1-40) amyloid formation; format: biochemical; details: flurbiprofen 20 parts, A-beta(1-40) 1 part
T2 construct: A mixture of flurbiprofen (20 parts) and A-beta(1-40) (1 part)
T2 sequence (P05067 672-711): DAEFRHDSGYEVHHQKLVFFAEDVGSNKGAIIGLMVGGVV
From the text: A mixture of flurbiprofen (20 parts) and A-beta(1-40) (1 part) was monitored by fluorescence detected thioflavin-T assays. The assays monitored the time course of amyloid formation (amount vs time) in the presence and absence of flurbiprofen.

human IAPP [3] = target: T3, human IAPP (Homo sapiens, UniProt P10997); experiment: One and two dimensional IR spectroscopy of fibers formed with flurbiprofen; details: IAPP:flurbiprofen 1:20; 0.5 mm human IAPP and 10 mM flurbiprofen
T3 construct: Mature, fully processed, Amylin is 37 residues in length, contains a disulfide bond between residues 2 and 7; made in house; host or cells: chemical solid-phase peptide synthesis (Fmoc), no expression host
T3 sequence (P10997 34-70 limits assumed): T1 sequence (P10997 34-70 H51Q) with Q18H
Procedure: One and two dimensional infrared (IR) spectroscopy was used to confirm the presence of beta-sheet structure. Amyloid is rich in beta-sheet structure. IR spectra were recorded of a mixture of […] human IAPP and 10 mM flurbiprofen.

[4] = tested on: 3XL-IAPP mutant (F15L, F23L, Y37L human IAPP); experiment: Thioflavin-T assay of mutant human IAPP amyloid formation (3XL); format: biochemical; details: WT human IAPP and mutant IAPP compared
From the text: as §1

[5] = target: T4, 3XL-IAPP mutant (F15L, F23L, Y37L human IAPP) (Homo sapiens, UniProt P10997, F48L/F56L/Y70L); experiment: as above; format: biochemical; details: 1:20 mixture of mutant with flurbiprofen
T4 construct: Mature, fully processed, Amylin is 37 residues in length, contains a disulfide bond between residues 2 and 7
T4 sequence (P10997 34-70 F48L/F56L/Y70L): T1 sequence (P10997 34-70 H51Q) with F15L, Q18H, F23L, Y37L
From the text: as §1

[6] = NMR spectra and pulse field gradient NMR diffusion (aggregation of the compound); format: physicochemical
Procedure: Flurbiprofen was dissolved at 32 micro molar and at 640 micromolar and Nuclear Magnetic Resonance (NMR) spectra were recorded.
A sample of 640 micromolar Flurbiprofen was prepared and pulse field gradient NMR experiments were conducted to determine the diffusion coefficient of the compound. The diffusion coefficient is directly related to the hydrodynamic radius of the compound. The NMR intensity decay curve was monitored for the methyl group NMR signal. The best fit to the data yields a hydrodynamic radius of 3.9 Å.

[7] = target: T5, I26P human IAPP point mutant (Homo sapiens, UniProt P10997, I59P); experiment: Thioflavin-T assay and TEM with non-amyloidogenic point mutant; format: biochemical; details: 20 fold excess of Flurbiprofen; vesicles as control experiment
T5 construct: Mature, fully processed, Amylin is 37 residues in length, contains a disulfide bond between residues 2 and 7
T5 sequence (P10997 34-70 I59P): T1 sequence (P10997 34-70 H51Q) with Q18H, I26P
Procedure: The […] human IAPP point mutant was incubated with Flurbiprofen (20 fold excess of Flurbiprofen) and the mixture was monitored by fluorescence detected thioflavin-T assays. […] Transmission electron microscopy was used to confirm the absence of amyloid. The […] human IAPP point mutant was incubated with 100 nm vesicles composed of 100% anionic lipids as a control experiment. The mixture was monitored by fluorescence detected thioflavin-T assays. […] Transmission electron microscopy was used to confirm the presence of amyloid.

human IAPP [8] = target: T3, human IAPP; experiment: Seeding experiments monitored by thioflavin-T; format: biochemical; details: 10% seeds by mass from 1:20 IAPP:flurbiprofen mixture
Procedure: Seeding experiments were conducted using the products of the experiment conducted with the mixture of flurbiprofen (20 parts) and human IAPP. Seeding refers to the addition of a small […] of pre-formed amyloid fibers to an initially unaggerated solution of polypeptide. Addition of the amyloid fibers leads to a by passing of the lag phase. […] 10% seeds, by mass, were added to unaggerated human IAPP and amyloid formation monitored by fluorescence detected thioflavin-T assays.

human IAPP [9] = target: T3, human IAPP; experiment: Fluorescence detected thioflavin-T assay of the time course of amyloid formation; format: biochemical
Procedure: Peptides were first dissolved in 100% hexafluoroisopropanol (HFIP) at a concentration 1.6 mM and then filtered to remove any preformed amyloid aggregates. For thioflavin-T fluorescence assays, aliquots were lyophilized and redissolved in pH 7.4, 20 mM Tris-HCl buffer at the desired concentration. Aspirin and Ketoprofen were prepared in 100% dimethyl sulfoxide (DMSO).
Solutions were prepared by adding pH 7.4, 20 mM Tris buffer and thioflavin-T to lyophilized dry peptides for a final peptide concentration of […]. For the studies of Aspirin and Ketoprofen, 0.25% DMSO was present in the solution. Measurements were made at 25° C. using a Beckman Coulter DTX880 plate reader without stirring. An excitation filter of 430 nm and an emission filter of 485 nm were used. To test disaggregate activity of Aspirin, peptide was first incubated in low-binding 96-wells plate and monitored by plate reader to ensure the formation of amyloid fibrils.
A mixture of flurbiprofen (1-20 parts) and human IAPP (1 part) was monitored by fluorescence detected thioflavin-T assays. The assays monitored the time course of amyloid formation (amount vs time) in the presence and absence of flurbiprofen.
A mixture of OH-flurbiprofen and human IAPP were monitored by fluorescence detected thioflavin-T assays. Three different concentrations (1:1 ratio, 1:10 ratio and 1:20 ratio of IAPP to OH-flurbiprofen) were tested against human IAPP without any added OH-flurbiprofen. The assays monitored the time course of amyloid formation (amount vs time) in the presence and absence of a flurbiprofen derivative.
Three different mixtures of NSAIDs (20 parts) and human IAPP (1 parts) were compared to each other and human IAPP alone by fluorescence detected thioflavin-T assays. The assays monitored the time course of amyloid formation (amount vs time) in the presence and absence of aspirin, naproxen and flurbiprofen.

[10] = Parallel biophysical and cell viability experiments on h-IAPP variants; format: cell-based
Procedure: Parallel biophysical and cell viability experiments were conducted using a range of conditions that alter the length of the lag phase. h-IAPP amyloid kinetics are concentration-dependent. Decreasing the peptide concentration leads to an increase in the length of the lag phase, while an increase in human-IAPP concentration leads to a shortening of the lag phase. The length of the lag phase can also be controlled by altering the temperature. Lower temperatures lead to a longer lag phase; the lag phase is 2-fold longer at 15° C. […] A set of rationally designed Ser-20 mutations were used. Ser-20 is located at a critical position in the h-IAPP sequence and modulates its aggregation kinetics. […] Toxicity and kinetics experiments were performed on the Ser-20 mutants. […] An human-IAPP triple mutant, 3×L-IAPP, in which Leu replaced the three aromatic residues (Phe-15, Phe=23 and Tyr-37) was tested. This mutant forms amyloid 9-fold more slowly than wild type human IAPP (Marek at al. 2007). […] The duration of toxicity for all the mutants and for all the conditions with human IAPP wild type correlated with the length of the respective lag phases.

[11] = Marek at al. 2007; cited from earlier work

## CC(C(=O)O)c1ccc(-c2ccccc2)c(F)c1 (racemic) [Flurbiprofen, (RS)-2-(2-fluorobiphenyl-4-yl)propanoic acid]
Rat INS-1 beta-cells; aliquots at thirty minutes, 12 hours, 48 hours of IAPP time course with and without flurbiprofen
  protection of β-cells against IAPP induced toxicity (cell viability, AlamarBlue): protects β-cells against IAPP induced toxicity
Rat INS-1 beta-cells
  presence and toxic effects of intermediates of amyloid formation: reduced the presence and toxic effects of intermediates of amyloid formation in a dose dependent fashion
Rat INS-1 beta-cells; listed as Flurbiprofen racemate
  presence and toxic effects of intermediates of amyloid formation: reduced the presence and toxic effects of intermediates of amyloid formation
Rat INS-1 beta-cells; listed as flurbiprofen
  presence and toxic effects of intermediates of amyloid formation: reduced
[1]
  survival of islet cell transplants: enhances the survival of the islet cell transplants
[2]
  toxic effects of amyloid formation in islets: reduces the toxic effects of amyloid formation
H18Q human IAPP
  effect on amyloid formation by H18Q-IAPP mutant: accelerates amyloid formation
H18Q human IAPP; listed as flurbiprofen
  effect on amyloid formation by H18Q-IAPP mutant: effected the mutant the same way as it did the wild type
A-beta(1-40)
  effect on A-beta(1-40) amyloid formation kinetics: did not influence the kinetics of amyloid formation by A-beta(1-40); also recorded: does not accelerate amyloid formation by the Aβ1-40 peptide
Human IAPP [3]
  β-structure of flurbiprofen induced aggregates (IR): rich in β-structure
[4]
  acceleration of amyloid formation and reduction of toxic effects of intermediates, WT human IAPP versus mutant IAPP: about equally
[5]
  effect on amyloid formation by 3XL-IAPP mutant: had the same effect; also recorded: accelerates amyloid formation
[6]; 32 and 640 micro molar samples
  aggregation state of the compound (NMR peak positions and line widths): independent of the concentration of the compound; also recorded: did not aggregate; also recorded: monomeric
[6]; 640 micromolar, methyl resonance decay curve
  hydrodynamic radius (PFG-NMR): 3.9 Å
[7]
  induction of amyloid formation by I26P-IAPP (thioflavin-T, TEM): No increase in fluorescence is detected; also recorded: did not induced amyloid formation; also recorded: does not induce the non-amyloidogenic point mutant I26P-IAPP to form amyloid fibers
Human IAPP [8]
  seeding of human IAPP amyloid formation by fibers formed with flurbiprofen: extremely effective at seeding amyloid formation by human IAPP
Human IAPP [9]; 1:1 ratio of human IAPP and compound
  effect on human IAPP amyloid formation (thioflavin-T time course): showed acceleration of amyloid formation
Human IAPP [9]; 20 to 1 ratio of compound to human IAPP
  effect on human IAPP amyloid formation (thioflavin-T time course): strongest effect of accelerating human IAPP amyloid formation
Human IAPP [9]; 20 to 1 ratio of compound to human IAPP, listed as Flurbiprofen racemate
  effect on human IAPP amyloid formation (thioflavin-T time course): accelerated islet amyloid formation
Human IAPP [9]; 20 to 1 ratio of compound to human IAPP, listed as racemic mixture
  effect on human IAPP amyloid formation (thioflavin-T time course): equally effective
Human IAPP [9]; IAPP:compound ratios 1:1 to 1:20, pH 7.4, 20 mM Tris, 25° C.
  effect on human IAPP amyloid formation (thioflavin-T time course): accelerated islet amyloid formation

## CC[C@H](C)[C@H](NC(=O)[C@H](C)NC(=O)CNC(=O)[C@H](CC(C)C)NC(=O)[C@H](CC(N)=O)NC(=O)[C@H](CC(N)=O)NC(=O)[C@H](CO)NC(=O)[C@H](CO)NC(=O)[C@H](Cc1c[nH]cn1)NC(=O)[C@@H](NC(=O)[C@H](CC(C)C)NC(=O)[C@H](CC(C)C)NC(=O)[C@H](CC(N)=O)NC(=O)[C@H](C)NC(=O)[C@H](CC(C)C)NC(=O)[C@H](CCCNC(=N)N)NC(=O)[C@H](CCC(N)=O)NC(=O)[C@@H](NC(=O)[C@H](C)NC(=O)[C@@H]1CSSC[C@H](NC(=O)[C@@H](N)CCCCN)C(=O)N[C@@H](CC(N)=O)C(=O)N[C@@H]([C@@H](C)O)C(=O)N[C@@H](C)C(=O)N[C@@H]([C@@H](C)O)C(=O)N1)[C@@H](C)O)C(C)C)C(=O)N[C@@H](CC(C)C)C(=O)N[C@@H](CO)C(=O)N[C@@H](CO)C(=O)N[C@H](C(=O)N[C@@H](CC(N)=O)C(=O)N[C@H](C(=O)NCC(=O)N[C@@H](CO)C(=O)N[C@@H](CC(N)=O)C(=O)N[C@H](C(=O)N[C@@H](CC(C)C)C(N)=O)[C@@H](C)O)C(C)C)[C@@H](C)O [3×L-IAPP] (H-KCNTATCATQRLANLLVHSSNNLGAILSSTNVGSNTL-NH2; disulfide 2-7)
[10]
  onset and duration of toxicity relative to wild type human IAPP: longer duration of toxicity
[11]
  amyloid formation slower than wild type human IAPP: 9 fold
